Source: ChEMBL document CHEMBL2321750, “Structural permutation of potent cytotoxin, polytheonamide B: discovery of cytotoxic Peptide with altered activity” (ACS Med Chem Lett, 2013)

System: P388
Assay: Cytotoxicity against mouse P388 cells assessed as cell viability after 92 hrs by XTT assay
Format: functional, cell-based
Conditions: P388, 92 h

SMILES	IC50
CC[C@H](C)[C@H](NC(=O)[C@@H](CC(=O)NC)NC(=O)CNC(=O)[C@H](NC(=O)[C@@H](NC(=O)[C@@H](CC(=O)NC)NC(=O)[C@@H](NC(=O)[C@@H](CC(=O)NC)NC(=O)CNC(=O)CNC(=O)[C@H](C)NC(=O)[C@H](NC(=O)[C@H](CCC(=O)NC)NC(=O)[C@@H](CC(=O)NC)NC(=O)[C@@H](NC(=O)CN)C(C)(C)C)C(C)(C)O)[C@@H](C)CC)C(C)(C)C)C(C)(C)O)C(=O)N[C@H](CC(=O)NC)C(=O)N[C@H](C(=O)N[C@H](CC(=O)NC)C(=O)N[C@@H](C)C(=O)N[C@H](CC(=O)NC)C(=O)N[C@H](C(=O)N[C@H](CO)C(=O)N[C@H](C(=O)N[C@H](CC(N)=O)C(=O)N[C@@H](Cc1cn(CCNS(=O)(=O)c2cccc3c(N(C)C)cccc23)nn1)C(=O)N[C@H](CC(N)=O)C(=O)N[C@@H](CCC(N)=O)C(=O)N[C@@H](C(=O)N[C@H](C(=O)O)[C@@H](C)O)[C@H](C)O)C(C)C)C(C)C)C(C)C	> 410 nM
CC[C@H](C)[C@H](NC(=O)[C@@H](CC(=O)NC)NC(=O)CNC(=O)[C@H](NC(=O)[C@@H](NC(=O)[C@@H](CC(=O)NC)NC(=O)[C@@H](NC(=O)[C@@H](CC(=O)NC)NC(=O)CNC(=O)CNC(=O)[C@H](C)NC(=O)[C@H](NC(=O)[C@H](CCC(=O)NC)NC(=O)[C@H](N)CC(=O)NC)C(C)(C)O)[C@@H](C)CC)C(C)(C)C)C(C)(C)O)C(=O)N[C@H](CC(=O)NC)C(=O)N[C@H](C(=O)N[C@H](CC(=O)NC)C(=O)N[C@@H](C)C(=O)N[C@H](CC(=O)NC)C(=O)N[C@H](C(=O)N[C@H](CO)C(=O)N[C@H](C(=O)N[C@H](CC(N)=O)C(=O)N[C@@H](Cc1cn(CCNS(=O)(=O)c2cccc3c(N(C)C)cccc23)nn1)C(=O)N[C@H](CC(N)=O)C(=O)N[C@@H](CCC(N)=O)C(=O)N[C@@H](C(=O)N[C@H](C(=O)O)[C@@H](C)O)[C@H](C)O)C(C)C)C(C)C)C(C)C	> 250 nM
CC[C@H](C)[C@H](NC(=O)[C@@H](CC(=O)NC)NC(=O)CNC(=O)[C@H](NC(=O)[C@@H](NC(=O)[C@@H](CC(=O)NC)NC(=O)[C@@H](NC(=O)[C@@H](CC(=O)NC)NC(=O)CNC(=O)CNC(=O)[C@H](C)NC(=O)[C@H](NC(=O)[C@H](CCC(=O)NC)NC(=O)[C@@H](CC(=O)NC)NC(=O)[C@@H](NC(=O)CNC(=O)[C@H](C)NC(=O)CN)C(C)(C)C)C(C)(C)O)[C@@H](C)CC)C(C)(C)C)C(C)(C)O)C(=O)N[C@H](CC(=O)NC)C(=O)N[C@H](C(=O)N[C@H](CC(=O)NC)C(=O)N[C@@H](C)C(=O)N[C@H](CC(=O)NC)C(=O)N[C@H](C(=O)N[C@H](CO)C(=O)N[C@H](C(=O)N[C@H](CC(N)=O)C(=O)N[C@@H](Cc1cn(CCNS(=O)(=O)c2cccc3c(N(C)C)cccc23)nn1)C(=O)N[C@H](CC(N)=O)C(=O)N[C@@H](CCC(N)=O)C(=O)N[C@@H](C(=O)N[C@H](C(=O)O)[C@@H](C)O)[C@H](C)O)C(C)C)C(C)C)C(C)C	> 450 nM
CC[C@H](C)[C@H](NC(=O)[C@@H](CC(=O)NC)NC(=O)CNC(=O)[C@H](NC(=O)[C@@H](NC(=O)[C@@H](CC(=O)NC)NC(=O)[C@@H](NC(=O)[C@@H](CC(=O)NC)NC(=O)CNC(=O)CNC(=O)[C@H](C)NC(=O)[C@H](NC(=O)[C@H](CCC(=O)NC)NC(=O)[C@@H](CC(=O)NC)NC(=O)[C@@H](NC(=O)CNC(=O)[C@H](C)NC(=O)CNC(=O)[C@@H](NC(=O)[C@H](N)CC(=O)NC)C(C)(C)O)C(C)(C)C)C(C)(C)O)[C@@H](C)CC)C(C)(C)C)C(C)(C)O)C(=O)N[C@H](CC(=O)NC)C(=O)N[C@H](C(=O)N[C@H](CC(=O)NC)C(=O)N[C@@H](C)C(=O)N[C@H](CC(=O)NC)C(=O)N[C@H](C(=O)N[C@H](CO)C(=O)N[C@H](C(=O)N[C@H](CC(N)=O)C(=O)N[C@@H](Cc1cn(CCNS(=O)(=O)c2cccc3c(N(C)C)cccc23)nn1)C(=O)N[C@H](CC(N)=O)C(=O)N[C@@H](CCC(N)=O)C(=O)N[C@@H](C(=O)N[C@H](C(=O)O)[C@@H](C)O)[C@H](C)O)C(C)C)C(C)C)C(C)C	> 420 nM
CC[C@H](C)[C@H](NC(=O)[C@@H](CC(=O)NC)NC(=O)CNC(=O)[C@H](NC(=O)[C@@H](NC(=O)[C@@H](CC(=O)NC)NC(=O)[C@@H](NC(=O)[C@@H](CC(=O)NC)NC(=O)CNC(=O)CNC(=O)[C@H](C)NC(=O)[C@H](NC(=O)[C@H](CCC(=O)NC)NC(=O)[C@@H](CC(=O)NC)NC(=O)[C@@H](NC(=O)CNC(=O)[C@H](C)NC(=O)CNC(=O)[C@@H](NC(=O)[C@@H](CC(=O)NC)NC(=O)[C@H](C)N)C(C)(C)O)C(C)(C)C)C(C)(C)O)[C@@H](C)CC)C(C)(C)C)C(C)(C)O)C(=O)N[C@H](CC(=O)NC)C(=O)N[C@H](C(=O)N[C@H](CC(=O)NC)C(=O)N[C@@H](C)C(=O)N[C@H](CC(=O)NC)C(=O)N[C@H](C(=O)N[C@H](CO)C(=O)N[C@H](C(=O)N[C@H](CC(N)=O)C(=O)N[C@@H](Cc1cn(CCNS(=O)(=O)c2cccc3c(N(C)C)cccc23)nn1)C(=O)N[C@H](CC(N)=O)C(=O)N[C@@H](CCC(N)=O)C(=O)N[C@@H](C(=O)N[C@H](C(=O)O)[C@@H](C)O)[C@H](C)O)C(C)C)C(C)C)C(C)C	100 nM
CC[C@H](C)[C@H](NC(=O)[C@@H](CC(=O)NC)NC(=O)CNC(=O)[C@H](NC(=O)[C@@H](NC(=O)[C@@H](CC(=O)NC)NC(=O)[C@@H](NC(=O)[C@@H](CC(=O)NC)NC(=O)CNC(=O)CNC(=O)[C@H](C)NC(=O)[C@H](NC(=O)[C@H](CCC(=O)NC)NC(=O)[C@@H](CC(=O)NC)NC(=O)[C@@H](NC(=O)CNC(=O)[C@H](C)N)C(C)(C)C)C(C)(C)O)[C@@H](C)CC)C(C)(C)C)C(C)(C)O)C(=O)N[C@H](CC(=O)NC)C(=O)N[C@H](C(=O)N[C@H](CC(=O)NC)C(=O)N[C@@H](C)C(=O)N[C@H](CC(=O)NC)C(=O)N[C@H](C(=O)N[C@H](CO)C(=O)N[C@H](C(=O)N[C@H](CC(N)=O)C(=O)N[C@@H](Cc1cn(CCNS(=O)(=O)c2cccc3c(N(C)C)cccc23)nn1)C(=O)N[C@H](CC(N)=O)C(=O)N[C@@H](CCC(N)=O)C(=O)N[C@@H](C(=O)N[C@H](C(=O)O)[C@@H](C)O)[C@H](C)O)C(C)C)C(C)C)C(C)C	190 nM
CC[C@H](C)[C@H](NC(=O)[C@@H](CC(=O)NC)NC(=O)CNC(=O)[C@H](NC(=O)[C@@H](NC(=O)[C@@H](CC(=O)NC)NC(=O)[C@@H](NC(=O)[C@@H](CC(=O)NC)NC(=O)CNC(=O)CNC(=O)[C@H](C)NC(=O)[C@H](NC(=O)[C@H](CCC(=O)NC)NC(=O)[C@@H](CC(=O)NC)NC(=O)[C@@H](NC(=O)CNC(=O)[C@H](C)NC(=O)CNC(=O)[C@@H](NC(=O)[C@@H](CC(=O)NC)NC(=O)[C@H](C)NC(=O)[C@H](NC(=O)[C@H](C)NC(=O)CNC(=O)[C@H](C)N)C(C)(C)C)C(C)(C)O)C(C)(C)C)C(C)(C)O)[C@@H](C)CC)C(C)(C)C)C(C)(C)O)C(=O)N[C@H](CC(=O)NC)C(=O)N[C@H](C(=O)N[C@H](CC(=O)NC)C(=O)N[C@@H](C)C(=O)N[C@H](CC(=O)NC)C(=O)N[C@H](C(=O)N[C@H](CO)C(=O)N[C@H](C(=O)N[C@H](CC(N)=O)C(=O)N[C@@H](Cc1cn(CCNS(=O)(=O)c2cccc3c(N(C)C)cccc23)nn1)C(=O)N[C@H](CC(N)=O)C(=O)N[C@@H](CCC(N)=O)C(=O)N[C@@H](C(=O)N[C@H](C(=O)O)[C@@H](C)O)[C@H](C)O)C(C)C)C(C)C)C(C)C	> 420 nM
